# Assay results taken from patent US9635879B2, “Sweetener” (Tate & Lyle Ingredients Americas LLC, priority 2013, dated 2017).
# Marks after values point to notes of the source that are not given here.
# Legend:
# [1] = Round table sensory evaluation with test panelists: sucrose equivalent value (SEV) against sucrose reference samples; assay type: in vivo; conditions: for Sweetness (mean SEV), two-way ANOVA, grouping (Duncan): second Sweetness line, superscripts = Duncan grouping, level of significance 5%
# Method: Round table evaluations were performed with test panelists. Equal sweet 10 SEV concentrations in neutral pH water were made for allulose, fructose and sucralose, as well as a composition comprising allulose, fructose and sucralose. The components of the test compositions are described in the below tables. The mixed compositions were calculated using the Beidler mixture equation for the sweeteners. The Beidler mixture equation for sweeteners is as follows: […]
# The concentration of each component in the mixture in ppm is divided by SEV (c/R) and is plotted against concentration, c. The slope of the linear regression is the maximum SEV (Rmax). The y-intercept of the linear regression multiplied by Rmax is the half-maximal sweetness concentration, 1/K. Rmax and 1/K are the two parameters used in the Beidler equation.
# The equal-molar mixture was tested against reference samples for the panelists to determine SEV values. […] The test samples were served in 2 ounce (approximately 60 ml) soufflé cups coded with 3-digit codes at room temperature. A two minute wait period between samples was enforced. Water and unsalted crackers was available for the panelists to clear their palates before and during testing. EyeQuestion was used for ballot development and recording of results. Results were collected in EyeQuestion for calculating approximate SEV level of each test sample. The test products analyzed in this experiment are described below in Table 1.
# [2] = times as sweet as sucrose; cited from earlier work
# [3] = neutral pH water, room temperature, samples made to equal sweet 10 SEV, references 4-14% sucrose
SMILES,"Mean sucrose equivalent value (SEV) (Mean 1) [1, 3]","Sweetness (mean SEV), two-way ANOVA, grouping (Duncan) [1]",Sweetness relative to sucrose [2],"Sweetness (mean SEV), two-way ANOVA, level of significance (Duncan) ([1]; first Sweetness line, superscripts = level of significance (Duncan))","Median sucrose equivalent value (SEV) (Median 1) [1, 3]"
"O=C(CO)C(O)C(O)C(O)CO (stereo not drawn) [Allulose, allulose]",10.14,10.14^b-c,,,
"O=C(CO)[C@@H](O)[C@H](O)[C@H](O)CO [Fructose, fructose]",10.14,10.14^b-c,,,
"OC[C@H]1O[C@H](O[C@]2(CCl)O[C@H](CCl)[C@@H](O)[C@@H]2O)[C@H](O)[C@@H](O)[C@H]1Cl [Sucralose, sucralose]",9.286,9.29^c,approximately 600 times,9.29,10
